Test results as given in patent publication US20080293696A1, “2-Aminoarylcarboxamides Useful as Cancer Chemotherapeutic Agents” (Bayer Pharmaceuticals Corporation, priority 2004, published 2008).
Structures can show the parent of a compound that is named as a salt.

What follows are compounds tested on PAKT/PKB (p-(S473) AKT) in H209 small cell lung carcinoma cells stimulated with Stem Cell Factor (assay: PAKT/PKB Cytoblot Assay with H209 cells (SCF-stimulated p-(S473) AKT)). Settings: Homo sapiens, NCI-H209, compound 1 hour, SCF 25 ng/mL 5 minutes, group: between 1 and 3 μM.
Type: cell-based
In short: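 H209 SCLC cells kept overnight in RPMI with 0.1% BSA were pretreated 1 h at 37 °C with compound (0.01–10 μM final), then stimulated with SCF 25 ng/mL for 5 min. After formaldehyde/methanol fixation, p-(S473) AKT was detected in-cell with HRP secondary and ECL chemiluminescence, and IC50 was derived.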

IC50 [µM] | SMILES
1 to 3 | O=C(Nc1ccc2c(c1)OC(F)(F)C(F)(F)O2)c1ncncc1NCc1ccncc1 [Example 39, 5-[(pyridin-4-ylmethyl)amino]-N-(2,2,3,3-tetrafluoro-2,3-dihydro-1,4-benzodioxin-6-yl)pyrimidine-4-carboxamide]
1 to 3 | N#Cc1cc(CNc2cc(F)c(F)cc2C(=O)Nc2ccc3c(c2)OC(F)(F)O3)ccn1 [Example 36, 2-{[(2-cyanopyridin-4-yl)methyl]amino}-N-(2,2-difluoro-1,3-benzodioxol-5-yl)-4,5-difluorobenzamide]

Same assay, conditions: Homo sapiens, NCI-H209, compound 1 hour, SCF 25 ng/mL 5 minutes, group: less than 500 nM

SMILES | IC50 [µM]
O=C(Nc1ccc2c(c1)OC(F)(F)C(F)(F)O2)c1cccnc1NCc1ccncc1 [Example 12, 2-[(pyridin-4-ylmethyl)amino]-N-(2,2,3,3-tetrafluoro-2,3-dihydro-1,4-benzodioxin-6-yl)nicotinamide] | < 0.5
O=C(Nc1ccc2c(c1)OC(F)(F)C(F)(F)O2)c1ccccc1NCc1ccncc1 [Example 6, 2-[(pyridin-4-ylmethyl)amino]-N-(2,2,3,3-tetrafluoro-2,3-dihydro-1,4-benzodioxin-6-yl)benzamide] | < 0.5
CC(C)(CO)CNc1cc(CNc2ccccc2C(=O)Nc2ccc3c(c2)OC(F)(F)O3)ccn1 [Example 141, N-(2,2-difluoro-1,3-benzodioxol-5-yl)-2-[({2-[(3-hydroxy-2,2-dimethylpropyl)amino]pyridin-4-yl}methyl)amino]benzamide trifluoroacetate(salt)] | < 0.5
COc1cccc(NCc2ccncc2)c1C(=O)Nc1ccc2c(c1)OC(F)(F)C(F)(F)O2 [Example 9, 2-methoxy-6-[(pyridin-4-ylmethyl)amino]-N-(2,2,3,3-tetrafluoro-2,3-dihydro-1,4-benzodioxin-6-yl)benzamide] | < 0.5
CCN(CC)CCNC(=O)c1cc(CNc2ccccc2C(=O)Nc2ccc3c(c2)OC(F)(F)O3)ccn1 [Example 88, N-[2-(diethylamino)ethyl]-4-{[(2{[(2,2-difluoro-1,3-benzodioxol-5-yl)amino]carbonyl}phenyl)amino]methyl}pyridine-2-carboxamide] | < 0.5
N#Cc1cc(CNc2ccc(F)cc2C(=O)Nc2ccc3c(c2)OC(F)(F)O3)ccn1 [Example 30, 2-{[(2-cyanopyridin-4-yl)methyl]amino}-N-(2,2-difluoro-1,3-benzodioxol-5-yl)-5-fluorobenzamide] | < 0.5

Now from value to compound:

IC50 [µM] | SMILES
< 0.5 | CNC(=O)c1cc(CNc2cc(F)ccc2C(=O)Nc2ccc3c(c2)OC(F)(F)O3)ccn1 [Example 33, 4-{[(2-{[(2,2-difluoro-1,3-benzodioxol-5-yl)amino]carbonyl}-5-fluorophenyl)amino]methyl}-N-methylpyridine-2-carboxamide]
< 0.5 | O=C(NCCO)c1cc(CNc2ccccc2C(=O)Nc2ccc3c(c2)OC(F)(F)O3)ccn1 [Example 91, 4-{[(2-{[(2,2-difluoro-1,3-benzodioxol-5-yl)amino]carbonyl}phenyl)amino]methyl}-N-(2-hydroxyethyl)pyridine-2-carboxamide]
< 0.5 | CCNC(=O)c1cc(CNc2ccccc2C(=O)Nc2ccc3c(c2)OC(F)(F)O3)ccn1 [Example 45, 4-{[(2-{[(2,2-difluoro-1,3-benzodioxol-5-yl)amino]carbonyl}phenyl)amino]methyl}-N-ethylpyridine-2-carboxamide]
